Results on 13 compounds are retold here after patent US20230365563A1, “QUINAZOLINE COMPOUND AND APPLICATION THEREOF” (SHANGHAI PHARMACEUTICALS HOLDING CO., LTD., priority 2020, published 2023).

One assay concerns the target T1, KRAS-G12D and SOS1 (Homo sapiens, UniProt P01116, G12D).
T1 construct: purchased
Description: Inhibition of KRAS-G12D/SOS1 binding (Cisbio binding kit, 665/615 ratio), Effect Embodiment A. The note with it: read-out: GTP-KRAS-G12D:SOS1 IC50. The method, boiled down: (§1)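 Test compounds were serially diluted 3-fold from the storage solution over 11 points and dispensed in duplicate wells at 1% final DMSO.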

For the next assay, the target named is T2, KRAS_WT and SOS1 (Homo sapiens, UniProt P01116).
T2 construct: purchased
Description: Inhibition of KRAS_WT/SOS1 binding (Cisbio binding kit, 665/615 ratio), Effect Embodiment C. The note with it: read-out: GTP-KRAS-WT:SOS1 IC50. The essentials:
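Compounds tested as 3-fold, 11-point dilutions in duplicate at 1% DMSO final against the KRAS_WT/SOS1 binding system. IC50 derived by nonlinear regression fit.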

The target in the next assay is T3, KRAS_G12D and cRAF (Homo sapiens, UniProt P01116, G12D).
T3 construct: purchased
Briefly: Inhibition of KRAS_G12D/cRAF binding (Cisbio binding kit, 665/615 ratio), Effect Embodiment B. To be noted: read-out: GTP-KRAS-G12D:CRAF IC50. The method, boiled down:
as §1

Where a name gives a salt, the structure may show the parent alone.

T2 sequence (P01116 1-188 isoform P01116-2): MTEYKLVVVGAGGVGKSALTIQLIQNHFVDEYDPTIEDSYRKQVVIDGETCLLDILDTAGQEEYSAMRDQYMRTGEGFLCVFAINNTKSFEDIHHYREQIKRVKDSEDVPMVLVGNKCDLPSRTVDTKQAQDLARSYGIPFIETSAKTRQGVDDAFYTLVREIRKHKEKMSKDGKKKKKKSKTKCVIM
T3 sequence (P01116 1-188 isoform P01116-2 G12D): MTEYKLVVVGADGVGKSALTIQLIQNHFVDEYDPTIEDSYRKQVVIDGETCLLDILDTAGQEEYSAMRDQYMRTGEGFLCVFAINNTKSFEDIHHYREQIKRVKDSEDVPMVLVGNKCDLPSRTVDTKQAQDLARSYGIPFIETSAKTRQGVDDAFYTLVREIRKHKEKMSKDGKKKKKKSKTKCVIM
T1 sequence (P01116 1-188 isoform P01116-2 G12D): as above

Regarding `C[C@@H](COc1nc(N2CC3CCC(C2)N3)c2cc(Cl)c(-c3cc(O)cc4ccccc34)c(F)c2n1)CN1CCO[C@H](C)C1` (single isomer, unassigned) [Compound 242, 4-((S or R)-4-((1R,5S)-3,8-diazacyclo[3.2.1]octan-3-yl)-6-chloro-8-fluoro-2-((R)-2-methyl-3-((R)-2-methylmorpholinyl)propoxy)quinazolin-7-yl)naphthalen-2-ol formate], the half-inhibitory concentration (IC50) (commonly the concentration needed to halve the response being measured) on KRAS-G12D and SOS1 came to 13.7 nM; at KRAS_WT and SOS1, 731 nM; on KRAS_G12D and cRAF it was 23.3 nM.
For `C[C@@H](COc1nc(N2CC3CCC(C2)N3)c2cc(Cl)c(-c3cc(O)cc4ccccc34)c(F)c2n1)CN1CCOC2(CC2)C1` (single isomer, unassigned) [Compound 243, 4-((S or R)-4-((1R,5S)-3,8-diazabicyclo[3.2.1]octan-3-yl)-6-chloro-8-fluoro-2-((R)-2-methyl-3-(4-oxa-7-azaspiro[2.5]octan-7-yl)propoxy)quinazolin-7-yl)naphthalen-2-ol formate] the same measures were 19.2 nM, 1250 nM and 37.5 nM.
Turning to `CC(C)N1CC2CCC(C1)N2CCCOc1nc(N2CC3CCC(C2)N3)c2cc(Cl)c(-c3cc(O)cc4ccccc34)c(F)c2n1` (single isomer, unassigned) [Compound 244, 4-((7S or 7R)-4-((1R,5S)-3,8-diazacyclo[3.2.1]octan-3-yl)-6-chloro-8-fluoro-2-(3-(3-isopropyl-3,8-diazacyclo[3.2.1]octan-8-yl)propoxy)quinazolin-7-yl)naphthalen-2-ol diformate], the IC50 on KRAS-G12D and SOS1 is 48.5 nM; on KRAS_WT and SOS1, 3340 nM; at KRAS_G12D and cRAF it was 260 nM.
For the compound `Oc1cc(-c2c(Cl)cc3c(N4CC5CCC(C4)N5)nc(OCCCN4CC5(COC5)C4)nc3c2F)c2ccccc2c1` (single isomer, unassigned) [Compound 245, 4-((S or R)-2-(3-(2-oxa-6-azaspiro[3.3]heptan-6-yl)propoxy)-4-((1R,5S)-3,8-diazacyclo[3.2.1]octan-3-yl)-6-chloro-8-fluoroquinazolin-7-yl)naphthalen-2-ol diformate], the IC50 was 27.4 nM on KRAS-G12D and SOS1; 1480 nM at KRAS_WT and SOS1; 110 nM at KRAS_G12D and cRAF.
Take `C[C@H]1CN(CCCOc2nc(N3CC4CCC(C3)N4)c3cc(Cl)c(-c4cc(O)cc5ccccc45)c(F)c3n2)CCO1` (single isomer, unassigned) [Compound 246, 4-((S or R)-4-((1R,5S)-3,8-diazacyclo[3.2.1]octan-3-yl)-6-chloro-8-fluoro-2-(3-((S)-2-methylmorpholinyl)propoxy)quinazolin-7-yl)naphthalen-2-ol formate]: the IC50 on KRAS-G12D and SOS1 worked out at 37.4 nM; on KRAS_WT and SOS1, 3700 nM; on KRAS_G12D and cRAF, 218 nM.
In the case of `C[C@@H](COc1nc(N2CC3CCC(C2)N3)c2cc(Cl)c(-c3cc(O)cc4ccccc34)c(F)c2n1)CN1CCO[C@@H](C)C1` (single isomer, unassigned) [Compound 247, 4-((S or R)-4-((1R,5S)-3,8-diazacyclo[3.2.1]octan-3-yl)-6-chloro-8-fluoro-2-((R)-2-methyl-3-((S)-2-methylmorpholinyl)propoxy)quinazolin-7-yl)naphthalen-2-ol formate], the IC50 on KRAS-G12D and SOS1 stood at 13.3 nM; at KRAS_WT and SOS1 it was 944 nM; at KRAS_G12D and cRAF, 28.5 nM.
Consider `Oc1cc(-c2c(Cl)cc3c(N4CC5CCC(C4)N5)nc(OCCCN4C5CCC4COC5)nc3c2F)c2c(F)c(F)ccc2c1` (single isomer, unassigned) [Compound 248, (4S or 4R)-4-(2-(3-(3-oxa-8-azabicyclo[3.2.1]octan-8-yl)propoxy)-4-(1R,5S)-3,8-diazabicyclo[3.2.1]octan-3-yl)-6-chloro-8-fluoroquinazolin-7-yl)-5,6-difluronaphththalen-2-ol formate], for which the IC50 at KRAS-G12D and SOS1 is 31.1 nM; on KRAS_WT and SOS1, 98.1 nM; at KRAS_G12D and cRAF it was 67.2 nM.
For the compound `C=CCCOCCCN1CCC[C@H]1COc1nc(N2CC3CCC(C2)N3)c2cc(F)c(-c3cc(O)cc4ccc(F)c(CC)c34)c(F)c2n1` (single isomer, unassigned) [Compound 249, 4-((S or R)-4-((1R,5S)-3,8-diazacyclo[3.2.1]octan-3-yl)-2-((S)-1-(3-(but-3-en-1-oxy)propyl)pyrrolidin-2-yl)methoxy)-6,8-difluoroquinazolin-7-yl)-5-ethyl-6-fluoronaphthalen-2-ol dihydrochloride], the concentration for half-maximal inhibition (IC50) at KRAS-G12D and SOS1 stood at 23.7 nM; at KRAS_WT and SOS1, 84.6 nM; on KRAS_G12D and cRAF it was 16.4 nM.
For `CCc1c(F)ccc2cc(O)cc(-c3c(F)cc4c(N5CC6CCC(C5)N6)nc(OCCCN5C[C@@H](C)O[C@@H](C)C5)nc4c3F)c12` (single isomer, unassigned) [Compound 250a, (S or R)-4-(4-((1R,5S)-3,8-diazacyclo[3.2.1]octan-3-yl)-2-(3-((2R,6S)-2,6-dimethylmorpholinyl)propoxy)-6,8-difluoroquinazolin-7-yl)-5-ethyl-6-fluoronaphthalen-2-ol formate] the same measures were 8.42 nM, 75.2 nM and 14.6 nM.
The matching figures for `C#Cc1c(F)ccc2cc(O)cc(-c3c(Cl)cc4c(N5CC6CCC(C5)N6)nc(OCCCN5C6CCC5COC6)nc4c3F)c12` (single isomer, unassigned) [Compound 255b, (4R or 4S)-4-(2-(3-(3-oxa-8-azabicyclo[3.2.1]octan-8-yl)propoxy)-4-(1R,5S)-3,8-diazabicyclo[3.2.1]octan-3-yl)-6-chloro-8-fluoroquinazolin-7-yl)-5-ethynyl-6-fluoronaphthalen-2-ol diformate]: 4.32 nM, 75.6 nM and 13.2 nM.
As to `CO[C@@H](COc1nc(N2CC3CCC(C2)N3)c2cc(Cl)c(-c3cc(O)cc4ccccc34)c(F)c2n1)CN1C2CCCC1CC2` (single isomer, unassigned) [Compound 257, (4S or 4R)-4-(2-((2R)-3-(8-azabicyclo[3.2.1]octan-8-yl)-2-methoxypropoxy)-4-((1R,5S)-3,8-diazabicyclo[3.2.1]octan-3-yl)-6-chloro-8-fluoroquinazolin-7-yl)naphthalen-2-ol formate], the IC50 on KRAS-G12D and SOS1 is 64.8 nM; on KRAS_WT and SOS1, over 10000 nM; on KRAS_G12D and cRAF, 296 nM.
For the compound `CO[C@H]1CCN(CCCOc2nc(N3CC4CCC(C3)N4)c3cc(Cl)c(-c4cc(O)cc5ccccc45)c(F)c3n2)[C@H](C)C1` (single isomer, unassigned) [Compound 258, 4-((S or R)-4-((1R,5S)-3,8-diazacyclo[3.2.1]octan-3-yl)-6-chloro-8-fluoro-2-(3-((2R,4S)-4-methoxy-2-methylpiperidin-1-yl)propoxy)quinazolin-7-yl)naphthalen-2-ol diformate], the half-maximal inhibitory concentration (IC50) at KRAS-G12D and SOS1 amounted to 26.9 nM; at KRAS_WT and SOS1 it was 6130 nM; on KRAS_G12D and cRAF, 219 nM.
With `Oc1cc(-c2c(Cl)cc3c(N4CC5CCC(C4)N5)nc(OCCCN4CCC5(CCOCC5)C4)nc3c2F)c2ccccc2c1` (single isomer, unassigned) [Compound 259, 4-((S or R)-2-(3-(8-oxa-2-azaspiro[4.5]decan-2-yl)propoxy)-4-((1R,5S)-3,8-diazacyclo[3.2.1]octan-3-yl)-6-chloro-8-fluoroquinazolin-7-yl)naphthalen-2-ol formate], the 50% inhibitory concentration (IC50) at KRAS-G12D and SOS1 was determined as 25.3 nM; on KRAS_WT and SOS1, 1470 nM; at KRAS_G12D and cRAF, 146 nM.
